US8841343B2, “Composition for repelling mosquitoes” (Bio & Hnt, Inc., priority 2006, dated 2014)

System: Aedes aegypti
Assay: Examination of repellent activity using skin test (treated human forearm in cage of about 100 mated female mosquitoes)
Type: in vivo
Conditions: for Effective repellency duration (hour) (mean ± standard deviation): maximum measurement time 12 hours
From the text: Citronellic acid and geranic acid, which are used in the present invention, are commercially available or can directly be synthesized. In this embodiment, products of Aldrich Co. (product names are respectively Citronellic acid and Geranic acid) were purchased and used as citronellic acid and geranic acid. Purities of the above two compounds were examined using a gas chromatograph (GC) and a gas chromatograph-mass spectrometry (GC-MS). The compounds having purity of 99.5% or greater were only used. Respective ingredients of the above compounds were added to isopropyl alcohol of 91% to make test samples consisting of a solution in the concentration of 0.5 to 50%. The samples were used for mosquito repellent efficacy experiments.
The test samples manufactured as above underwent repellent effective experiments with respect to Aedes which is a main mosquito group attacking human.
In this embodiment, Aedes aegypti was used as test mosquitoes. The Aedes aegypti was supplied from Korea Research Institute of Bioscience and Biotechnology and reared indoor from generation to generation.
The larvae of the Aedes aegypti were reared in a plastic container of 22×14×7 cm containing distilled water with small amount of one-to-one mixture of chicken feed and yeast. Fresh mosquito pupae were transferred into a paper cup containing water and then placed in a transparent rearing cage to emerge as adults. Here, the rearing cage was constructed with metal net. Males and females of the freshly emerged mosquitoes were transferred to a rearing cage at one-to-one ratio, and left for two or three days for mating. The female mosquitoes were then used for repellency tests. Eight percent (8%) sugar water was supplied for the adult mosquitoes. The following rearing conditions were maintained: light condition of 16 h:8 h (day:night), temperature of 27±2° C., and relative humidity of 80±10%.
In order to examine effectiveness of the mosquito repellent of the prepared sample solutions, one (1) ml of a sample solution was uniformly applied, using a metal rod, on a forearm of a volunteer human test subject between wrist and elbow. Thereafter, the arm treated with the test solution was inserted in a bioassay cage, constructed with Plexiglass of 50×50×50 cm containing approximately 100 mated female mosquitoes. The number of mosquitoes trying to bite was recorded for three minutes in every thirty minutes for up to 4 hours or in every hour for up to 12 hours. The time required to get the arm bitten by two cumulative mosquitoes was regarded as effective repellency duration. A net window of 40×40 cm was present at each side and top of the Plexiglass bioassay cage to allow air ventilation. A 15×15 cm hole was prepared at the front side of the Plexiglass bioassay cage and a long net sleeve was attached to the hole so that the test arm could be put into the cage for repellency test.
At the beginning of each repellency test, an arm treated with no solvent was placed in the bioassay cage containing mosquitoes, in order to examine blood feeding activity of the mated female test mosquitoes. The repellency tests with the test solutions were carried out only when the arm was bitten by at least two mosquitoes for initial three minutes.
Repellent activity against Aedes was examined in accordance with the aforementioned method using the samples which respectively contain citronellic acid and geranic acid. Also, mosquito repellent activity was measured with solutions which contain DEET and Picadirin, wherein the DEET and Picadirin are commercially available mosquito repellents which are currently recommended by the Center for Disease Control of the United States.
In Table 4 to Table 6, the repellent efficiency was calculated using the following Equation 1.

[1] = 10% (0.25 mg/cm^3), 120 minutes
[2] = 10% (0.25 mg/cm^3), 150 minutes
[3] = 10% (0.25 mg/cm^3), 180 minutes
[4] = 10% (0.25 mg/cm^3), 210 minutes
[5] = 10% (0.25 mg/cm^3), 240 minutes
[6] = concentration 10% (0.25 mg/cm^3), time until two cumulative bites, maximum measurement time 240 minutes

CC(C)=CCC/C(C)=C/C(=O)O [Geranic acid, geranic acid]
Repellent efficiency (%) per time (minutes) (2% (0.05 mg/cm^3), 30 minutes): 100% | Repellent efficiency (%) per time (minutes) (2% (0.05 mg/cm^3), 60 minutes): 100% | Repellent efficiency (%) per time (minutes) (2% (0.05 mg/cm^3), 90 minutes): 100% | Repellent efficiency (%) per time (minutes) (2% (0.05 mg/cm^3), 120 minutes): 100% | Repellent efficiency (%) per time (minutes) (2% (0.05 mg/cm^3), 150 minutes): 83.3% | Repellent efficiency (%) per time (minutes) (2% (0.05 mg/cm^3), 180 minutes): 50.0% | Repellent efficiency (%) per time (minutes) (2% (0.05 mg/cm^3), 210 minutes): 50.0% | Repellent efficiency (%) per time (minutes) (2% (0.05 mg/cm^3), 240 minutes): 33.3% | Repellent efficiency (%) per time (minutes) (10% (0.25 mg/cm^3), 30 minutes): 100% | Repellent efficiency (%) per time (minutes) (10% (0.25 mg/cm^3), 60 minutes): 100% | Repellent efficiency (%) per time (minutes) (10% (0.25 mg/cm^3), 90 minutes): 100% | Repellent efficiency (%) per time (minutes) [1]: 100% | Repellent efficiency (%) per time (minutes) [2]: 100% | Repellent efficiency (%) per time (minutes) [3]: 100% | Repellent efficiency (%) per time (minutes) [4]: 100% | Repellent efficiency (%) per time (minutes) [5]: 87.5% | Repellent efficiency (%) per time (hours) (15% (0.375 mg/cm^3), 1 hour): 100% | Repellent efficiency (%) per time (hours) (15% (0.375 mg/cm^3), 2 hours): 100% | Repellent efficiency (%) per time (hours) (15% (0.375 mg/cm^3), 3 hours): 100% | Repellent efficiency (%) per time (hours) (15% (0.375 mg/cm^3), 4 hours): 81.8% | Repellent efficiency (%) per time (hours) (15% (0.375 mg/cm^3), 5 hours): 72.7% | Repellent efficiency (%) per time (hours) (15% (0.375 mg/cm^3), 6 hours): 54.5% | Repellent efficiency (%) per time (hours) (15% (0.375 mg/cm^3), 7 hours): 54.5% | Repellent efficiency (%) per time (hours) (15% (0.375 mg/cm^3), 8 hours): 54.5% | Repellent efficiency (%) per time (hours) (15% (0.375 mg/cm^3), 9 hours): 45.5% | Repellent efficiency (%) per time (hours) (30% (0.75 mg/cm^3), 1 hour): 100% | Repellent efficiency (%) per time (hours) (30% (0.75 mg/cm^3), 2 hours): 100% | Repellent efficiency (%) per time (hours) (30% (0.75 mg/cm^3), 3 hours): 100% | Repellent efficiency (%) per time (hours) (30% (0.75 mg/cm^3), 4 hours): 100% | Repellent efficiency (%) per time (hours) (30% (0.75 mg/cm^3), 5 hours): 100% | Repellent efficiency (%) per time (hours) (30% (0.75 mg/cm^3), 6 hours): 85.7% | Repellent efficiency (%) per time (hours) (30% (0.75 mg/cm^3), 7 hours): 85.7% | Repellent efficiency (%) per time (hours) (30% (0.75 mg/cm^3), 8 hours): 85.7% | Repellent efficiency (%) per time (hours) (30% (0.75 mg/cm^3), 9 hours): 85.7% | Repellent efficiency (%) per time (hours) (30% (0.75 mg/cm^3), 10 hours): 85.7% | Repellent efficiency (%) per time (hours) (30% (0.75 mg/cm^3), 11 hours): 78.6% | Repellent efficiency (%) per time (hours) (30% (0.75 mg/cm^3), 12 hours): 71.4% | Repellent efficiency (%) per time (hours) (50% (1.25 mg/cm^3), 1 hour): 100% | Repellent efficiency (%) per time (hours) (50% (1.25 mg/cm^3), 2 hours): 100% | Repellent efficiency (%) per time (hours) (50% (1.25 mg/cm^3), 3 hours): 100% | Repellent efficiency (%) per time (hours) (50% (1.25 mg/cm^3), 4 hours): 100% | Repellent efficiency (%) per time (hours) (50% (1.25 mg/cm^3), 5 hours): 100% | Repellent efficiency (%) per time (hours) (50% (1.25 mg/cm^3), 6 hours): 100% | Repellent efficiency (%) per time (hours) (50% (1.25 mg/cm^3), 7 hours): 100% | Repellent efficiency (%) per time (hours) (50% (1.25 mg/cm^3), 8 hours): 100% | Repellent efficiency (%) per time (hours) (50% (1.25 mg/cm^3), 9 hours): 100% | Repellent efficiency (%) per time (hours) (50% (1.25 mg/cm^3), 10 hours): 100% | Repellent efficiency (%) per time (hours) (50% (1.25 mg/cm^3), 11 hours): 90% | Repellent efficiency (%) per time (hours) (50% (1.25 mg/cm^3), 12 hours): 80% | repellency (in words) (at the level of 0.0125 mg/cm^3): did not represent any repellency | time for which repellent efficiency of 100% was shown (at the level of 0.05 mg/cm^3): 120 min | time for which repellent efficiency of 100% was shown (at the level of 0.25 mg/cm^3): 210 min | Effective repellency duration (minute) (mean ± standard deviation) (concentration 0.5% (0.0125 mg/cm^3), time until arm bitten by two cumulative mosquitoes): 0 ± 0 min | Effective repellency duration (minute) (mean ± standard deviation) (concentration 2% (0.05 mg/cm^3), time until arm bitten by two cumulative mosquitoes): 195 ± 45.0 min | Effective repellency duration (minute) (mean ± standard deviation) (concentration 2% (0.05 mg/cm^3), time until arm bitten by two cumulative mosquitoes, listed as geranic acid): 195 min | Effective repellency duration (minute) (mean ± standard deviation) [6]: 240 ± 0 min | Effective repellency duration (minute) (mean ± standard deviation) (concentration 10% (0.25 mg/cm^3), time until two cumulative bites, maximum measurement time 240 minutes, listed as geranic acid): 240 min | Effective repellency duration (hour) (mean ± standard deviation) (concentration 15% (0.375 mg/cm^3)): 6.7 ± 1.20 h | Effective repellency duration (hour) (mean ± standard deviation) (concentration 30% (0.75 mg/cm^3)): 10.0 ± 2.00 h | Effective repellency duration (hour) (mean ± standard deviation) (concentration 30% (0.75 mg/cm^3), listed as geranic acid): 10 h | Effective repellency duration (hour) (mean ± standard deviation) (concentration 50% (1.25 mg/cm^3)): 12.0 ± 0 h | Effective repellency duration (hour) (mean ± standard deviation) (concentration 50% (1.25 mg/cm^3), listed as geranic acid): 12 h | repellent efficiency (for 10 hours at the level of 0.75 mg/cm^3): ~90% | repellent efficiency (for 10 hours at the level of 1.25 mg/cm^3): 100%

CCC(C)OC(=O)N1CCCCC1CCO (stereo not drawn) [Picadirin, reference compound]
Repellent efficiency (%) per time (minutes) (10% (0.25 mg/cm^3), 30 minutes): 85.0% | Repellent efficiency (%) per time (minutes) (10% (0.25 mg/cm^3), 60 minutes): 85.0% | Repellent efficiency (%) per time (minutes) (10% (0.25 mg/cm^3), 90 minutes): 85.0% | Repellent efficiency (%) per time (minutes) [1]: 80.0% | Repellent efficiency (%) per time (minutes) [2]: 75.0% | Repellent efficiency (%) per time (minutes) [3]: 72.5% | Repellent efficiency (%) per time (minutes) [4]: 62.5% | Repellent efficiency (%) per time (minutes) [5]: 47.5% | time for which repellent efficiency of 100% was shown (at the level of 0.25 mg/cm^3): less than 30 minutes | Effective repellency duration (minute) (mean ± standard deviation) [6]: 158 min | Effective repellency duration (minute) (mean ± standard deviation) (concentration 10% (0.25 mg/cm^3), time until two cumulative bites, maximum measurement time 240 minutes, listed as Picadrin): 158 ± 27.5 min
